According to BindingDB's records for doi:10.1016/0006-8993(87)90040-0 (St, Marianna University School of Medicine, 1987):
pKi: −log10 of the molar value.

Molecular target: D(2) dopamine receptor (Rattus norvegicus, UniProt P61169)
Sequence (P61169 whole entry): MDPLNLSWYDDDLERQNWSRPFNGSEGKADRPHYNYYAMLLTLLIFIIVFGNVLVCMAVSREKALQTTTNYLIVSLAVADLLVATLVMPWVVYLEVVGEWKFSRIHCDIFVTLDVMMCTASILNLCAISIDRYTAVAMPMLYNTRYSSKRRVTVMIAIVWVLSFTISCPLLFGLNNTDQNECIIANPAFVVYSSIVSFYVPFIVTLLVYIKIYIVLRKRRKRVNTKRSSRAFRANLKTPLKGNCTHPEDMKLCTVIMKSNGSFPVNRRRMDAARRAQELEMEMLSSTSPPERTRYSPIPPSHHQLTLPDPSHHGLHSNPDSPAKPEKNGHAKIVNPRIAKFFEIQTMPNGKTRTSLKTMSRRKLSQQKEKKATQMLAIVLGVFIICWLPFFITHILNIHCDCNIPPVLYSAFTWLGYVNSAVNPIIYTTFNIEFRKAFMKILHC

Structure (SMILES) | pKi
COc1cc2nc(N3CCN(C(=O)c4ccco4)CC3)nc(N)c2cc1OC [[3H]-Minipress] | 5.06
CCN(CC)CCNC(=O)c1cc(S(C)(=O)=O)ccc1OC [CAS_51012-32-9] | 7.11
COC(=O)[C@@H]1[C@H]2C[C@H]3c4[nH]c5ccccc5c4CCN3C[C@@H]2CC[C@@H]1O [yohimbic acid methyl ester] | 6.80
CCN1CCC[C@H]1CNC(=O)c1cc(S(=O)(=O)CC)ccc1OC [Sultopride] | 8.62
COc1ccc2c(c1)N(C[C@@H](C)CN(C)C)c1ccccc1S2 | 7.82
